Series [1] is classed as physicochemical. To be noted: extraction time varied 0-60 minutes; dihexyl ether; 900 rpm.
The conditions of series [2]: from reference [17]; cited from earlier work.

In the case of `O=C(CCCN1CCC(O)(c2ccc(Cl)cc2)CC1)c1ccc(F)cc1` [Haloperidol], the “Extraction time for PALME system to enter equilibrium” value (“Extraction time for PALME system” below) in series [1] is 15 min.

Consider `CCC(=O)C(CC(C)N(C)C)(c1ccccc1)c1ccccc1` (centres unmarked) [Methadone], for which the “Extraction time for PALME system” value in series [1] is 15 min. Besides, the Therapeutic range in series [2] is 100 to 500 ng/mL.

As for `CNCCC=C1c2ccccc2CCc2ccccc21` [Nortriptyline], in series [1], the “Extraction time for PALME system” value came to 30 min.

In the case of `CCOC(=O)C1(c2ccccc2)CCN(C)CC1` [Pethidine], in series [2], the Therapeutic range is 100 to 800 ng/mL.

The values above are taken from patent publication US20150276568A1 (priority 2012, published 2015).
